Source: patent publication US10981932B2, “Macrocyclic indole derivatives” (Bayer Aktiengesellschaft, priority 2016, dated 2021)
Where “and” joins values, the source holds several entries; their conditions need not be identical. Equal values may be shown once. Read-outs that look alike come from different tables or passages of the source.

Key:
[1] = 11-membered ring
MCL-1 = MCL-1 (Homo sapiens, UniProt Q07820); assay: Protein-protein interaction assay MCL-1/Noxa BH3 peptide (MCL-1 assay), TR-FRET; assay type: binding; conditions: MBP-MCL-1 / Noxa BH3-derived peptide, median
Summary of the method: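 Steady-state competition, MCL-1/Noxa BH3, TR-FRET readout; 1 nM MBP-MCL-1, 11-point dose series 0.1 nM–20 μM; overnight 4 °C equilibration; 4-parameter IC50.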

SUDHL5 [2] = assay: Induction of caspase-3/7 activity (Caspase-Glo 3/7), SUDHL5; assay type: cell-based; conditions: caspase-3/7 induction, SUDHL5 cells, 3 h treatment; median
Summary of the method: (§1)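 A 3 h, 37 °C compound incubation precedes the Caspase-Glo 3/7 read. After subtracting medium-only signal, EC50s are fitted against the reference compound's maximal caspase induction.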

SUDHL10 [3] = assay: Induction of caspase-3/7 activity (Caspase-Glo 3/7), SUDHL10; assay type: cell-based; conditions: caspase-3/7 induction, SUDHL10 cells, 3 h treatment; median
Summary of the method: as §1

SUDHL5 [4] = assay: Anti-proliferative effect (CellTiter-Glo, 72 h), SUDHL5; assay type: cell-based; conditions: SUDHL5 cells, antiproliferation, median, read-out: Antiproli SUDHL5 [M] (median)
Summary of the method: (§2)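 Plate cells alongside a separate day 0 reference plate. Read the reference plate at once with CellTiter-Glo. Incubate treated cells 72 h at 37 °C, then read them the same way by luminescence.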

SUDHL10 [5] = assay: Anti-proliferative effect (CellTiter-Glo, 72 h), SUDHL10; assay type: cell-based; conditions: SUDHL10 cells, antiproliferation, 72 h incubation, median, read-out: Antiproli SUDHL10 [M] (median)
Summary of the method: as §2

A2780 = assay: Anti-proliferative effect (CellTiter-Glo, 72 h), A2780; assay type: cell-based; conditions: A2780 cells, median, read-out: IC50 antiproliferation assay A2780 [M] (median)
Summary of the method: as §2

MV-4-11 = assay: Anti-proliferative effect (CellTiter-Glo, 72 h), MV-4-11; assay type: cell-based; conditions: MV-4-11 cells, median, read-out: IC50 antiproliferation assay MV-4-11 [M] (median)
Summary of the method: as §2

SUDHL5 [6] = system: SUDHL5
SUDHL10 [7] = system: SUDHL10
OPM2 = assay: Anti-proliferative effect (CellTiter-Glo, 72 h), OPM2; assay type: cell-based; conditions: OPM2 cells, median, read-out: IC50 antiproliferation assay OPM2 [M] (median)
Summary of the method: as §2

SK-MEL-2 = assay: Anti-proliferative effect (CellTiter-Glo, 72 h), SK-MEL-2; assay type: cell-based; conditions: Homo sapiens, SK-MEL-2 cells, median, read-out: IC50 antiproliferation assay SK-MEL-2 [M] (median)
Experimental: Assessment of the Anti-Proliferative Effect of Compounds in Different Cell Lines
(§3) The impact of compounds on the proliferation of different cell lines was assessed using the CellTiter-Glo® Luminescent Cell Viability reagent from Promega (G7573). Of note, SUDHL10 and SUDHL5 (DLBCL), NCI-H929 (Multiple Myeloma), A2780 (ovarian carcinoma) as well as MV-4-11(AML) cells are sensitive to MCL-1 inhibition.
(§4) In parallel, cells were plated in a reference (day 0) plate for time zero determination.
(§5) Rim wells were excluded. The cells were incubated for 72 h hours in a humidified incubator at 37° C. The day 0 plate was measured by adding 30 μl/well of CTG solution (CellTiter-Glo® Luminescent Cell Viability reagent, Promega G7573) to time zero wells in the reference plate followed by a 10 minutes incubation and luminescence reading at 0.1 ms, using the PHERAstar FS microplate reader (BMG Labtech).
(§6) After 72 h incubation, the treated plates were measured in the same way as the day 0 plate mentioned above.

NCI-H1703 = assay: Anti-proliferative effect (CellTiter-Glo, 72 h), NCI-H1703; assay type: cell-based; conditions: Homo sapiens, NCI-H1703 cells, median, read-out: IC50 antiproliferation assay NCI-H1703 [M] (median)
Experimental: as §3, §4, §5, §6

SUDHL5 [8] = assay: Induction of cytotoxicity (CellTiter-Glo, 5 h), SUDHL5; conditions: read-out: Cytotox SUDHL5 [M] (median); SUDHL5 cells, cytotoxicity induction, CellTiter-Glo, 5 h incubation, median
SUDHL10 [9] = assay: Induction of cytotoxicity (CellTiter-Glo, 5 h), SUDHL10; conditions: read-out: Cytotox SUDHL10 [M] (median); SUDHL10 cells, cytotoxicity induction, CellTiter-Glo, 5 h incubation, median

MCL-1, sequence (Q07820 whole entry): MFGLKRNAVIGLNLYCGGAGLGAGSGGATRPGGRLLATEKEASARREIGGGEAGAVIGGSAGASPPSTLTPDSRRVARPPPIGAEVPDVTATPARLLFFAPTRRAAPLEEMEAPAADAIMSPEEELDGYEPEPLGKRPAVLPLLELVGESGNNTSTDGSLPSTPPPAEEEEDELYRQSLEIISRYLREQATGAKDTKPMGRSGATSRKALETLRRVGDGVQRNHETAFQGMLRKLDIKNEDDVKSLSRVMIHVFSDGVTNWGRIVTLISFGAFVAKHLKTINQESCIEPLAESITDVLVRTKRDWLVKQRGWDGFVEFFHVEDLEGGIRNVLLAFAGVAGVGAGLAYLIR

Compound	IC50 (MCL-1) [nM]	EC50 (SUDHL5 [2]) [µM]	EC50 (SUDHL10 [3])	IC50 (SUDHL5 [4]; 72 h incubation) [M]	IC50 (SUDHL10 [5]) [M]	IC50 (A2780) [M]	IC50 (MV-4-11) [M]	IC50 (SUDHL5 [6]) [µM]	IC50 (SUDHL10 [7]) [µM]	IC50 (OPM2) [M]	further results
CCOC(=O)c1[nH]c2c(-c3c(CC)nn(C)c3CO)c(C)ccc2c1CCCO[Si](C)(C)C(C)(C)C											ring closure, isolated yield ([1]; the molecule shown is the open-chain precursor, crosslinker bond, (2Z)-1,4-dichlorobut-2-ene/NaH, DMF, 65.1 mM): 68.9%
CCOC(=O)c1[nH]c2c(-c3c(CO)nn(C)c3CC)cccc2c1CCCO[Si](C)(C)C(C)(C)C											ring closure, isolated yield ([1]; the molecule shown is the open-chain precursor, crosslinker bond, (2Z)-1,4-dichlorobut-2-ene/NaH, DMF, 65.6 mM): 75.3%
CCOC(=O)c1[nH]c2c(-c3c(CO)nn(CCN4CCOCC4)c3C)c(C)ccc2c1CCCO[Si](C)(C)C(C)(C)C											ring closure, isolated yield ([1]; the molecule shown is the open-chain precursor, crosslinker bond, (2Z)-1,4-dichlorobut-2-ene/NaH, DMF, 65.7 mM): 48.3%
CCc1c2c(nn1C)COCCCCn1c(C(=O)O)c(CCCOc3cccc4cc(F)ccc34)c3cccc-2c31 (racemic) [Example 281, (rac)-3-ethyl-7-{3-[(6-fluoronaphthalen-1-yl)oxy]propyl}-2-methyl-2,10,11,12,13,15-hexahydropyrazolo[4′,3′:9,10][1,6]oxazacycloundecino[8,7,6-hi]indole-8-carboxylic Acid]	1.63	1.45	2.78 µM	2.48e-06	6.99e-06	1.39e-05	4.74e-06	1.85	2.58		
Cc1c2c(nn1CC(F)(F)F)COCCCCn1c(C(=O)O)c(CCCOc3cccc4ccccc34)c3cccc-2c31 [Example 242, 3-methyl-7-[3-(naphthalen-1-yloxy)propyl]-2-(2,2,2-trifluoroethyl)-2,10,11,12,13,15-hexahydropyrazolo[4′,3′:9,10][1,6]oxazacycloundecino[8,7,6-hi]indole-8-carboxylic Acid]	258	> 33	> 33 µM	1.52e-06	2.74e-06	2.59e-06		> 33	> 33		
(rac)-(E/Z)-ethyl-1,3-dimethyl-7-[3-(naphthalen-1-yloxy)propyl]-1,10,13,15-tetrahydropyrazolo[4′,3′:9,10][1,6]oxazacycloundecino[8,7,6-hi]indole-8-carboxylate											ring closure, isolated yield ([1]; rcm bond, Grubbs II (10 mol%), DCM, 77.0 mM): 57%

More lines, main results first:

IC50 (MCL-1) [nM]	EC50 (SUDHL5 [2]) [µM]	EC50 (SUDHL10 [3])	IC50 (SUDHL5 [4]; 72 h incubation) [M]	IC50 (SUDHL10 [5]) [M]	IC50 (A2780) [M]	IC50 (MV-4-11) [M]	IC50 (SUDHL5 [6]) [µM]	IC50 (SUDHL10 [7]) [µM]	Compound	IC50 (OPM2) [M]	further results
99.9	> 33	> 33 µM			1.05e-05	2e-05	30.9	27.1	CCc1nn(C)c2c1-c1cccc3c(CCCOc4cccc5cc(C(F)(F)F)ccc45)c(C(=O)O)n(c13)CCCCOC2 (racemic) [Example 313, (rac)-12-ethyl-10-methyl-1-(3-((6-(trifluoromethyl)naphthalen-1-yl)oxy)propyl)-4,5,6,7,9,10-hexahydropyrazolo[4′,3′:9,10][1,6]oxaazacycloundecino[8,7,6-hi]indole-2-carboxylic Acid]		IC50 (SUDHL5 [4]; 72 h): 7.48e-06 M
10.8	6.2	14 µM	2.53e-06	7.66e-06	8.42e-06	2.02e-06	6.3	13.9	CN1CCCn2c(C(=O)O)c(CCCOc3cccc4ccccc34)c3cccc(c32)-c2c(CCN3CCOCC3)nn(C)c2C1 (single isomer, unassigned; enantiomer 1) [Example 125, 7,9-dimethyl-11-[2-(morpholin-4-yl)ethyl]-1-[3-(naphthalen-1-yloxy)propyl]-4,5,6,7,8,9-hexahydropyrazolo[3′,4′:7,8][1,5]diazecino[9,10,1-hi]indole-2-carboxylic Acid (Enantiomer 1)]	1.15e-05	
22.8	> 33	> 33 µM		8.9e-06	> 3.3e-05		> 33	> 33	Cn1nc(CN2CCOCC2)c2c1COCCCCn1c(C(=O)O)c(CCCOc3cccc4ccccc34)c3cccc-2c31 (single isomer, unassigned; enantiomer 1) [Example 136, 1-methyl-3-(morpholin-4-ylmethyl)-7-[3-(naphthalen-1-yloxy)propyl]-1,10,11,12,13,15-hexahydropyrazolo[4′,3′:9,10][1,6]oxazacycloundecino[8,7,6-hi]indole-8-carboxylic Acid (Enantiomer 1)]	> 3.3e-05	
42.2	> 33	> 33 µM		2.67e-05	> 3.3e-05		> 33	> 33	Cn1nc(CN2CCOCC2)c2c1COCCCn1c(C(=O)O)c(CCCOc3cccc4ccccc34)c3cccc-2c31 (single isomer, unassigned; enantiomer 1) [Example 139, 9-methyl-11-(morpholin-4-ylmethyl)-1-[3-(naphthalen-1-yloxy)propyl]-5,6,8,9-tetrahydro-4H-pyrazolo[4′,3′:8,9][1,5]oxazecino[7,6,5-hi]indole-2-carboxylic Acid (Enantiomer 1)]	> 3.3e-05	
1.26	0.899	3.46 µM	1.65e-06	1.13e-06					CCc1nn(CCN2CCOCC2)c2c1-c1cccc3c(CCCOc4cccc5ccccc45)c(C(=O)O)n(c13)CCCCOC2 (single isomer, unassigned; enantiomer 1) [Example 199, 3-ethyl-1-[2-(morpholin-4-yl)ethyl]-7-[3-(naphthalen-1-yloxy)propyl]-1,10,11,12,13,15-hexahydropyrazolo[4′,3:9,10][1,6]oxazacycloundecino[8,76-hi]indole-8-carboxylic Acid (Enantiomer 1)]		IC50 (A2780; Homo sapiens, A2780, 72 h): 1.57e-05 M; IC50 (MV-4-11; Homo sapiens, MV4-11, 72 h): 7.51e-06 M; IC50 (SK-MEL-2): 2.9e-05 M; IC50 (NCI-H1703): 1.46e-05 M; IC50 (SUDHL5 [8]): 9.25e-07 M; IC50 (SUDHL10 [9]): 2.92e-06 M
84.5	27.9	> 33 µM	1.68e-05	1.51e-05	3.19e-05		27.3	> 33	CN1CCCn2c(C(=O)O)c(CCCOc3cccc4ccccc34)c3cccc(c32)-c2c(CCN3CCOCC3)nn(C)c2C1 (single isomer, unassigned; enantiomer 2) [Example 126, 7,9-dimethyl-11-[2-(morpholin-4-yl)ethyl]-1-[3-(naphthalen-1-yloxy)propyl]-4,5,6,7,8,9-hexahydropyrazolo[3′,4′:7,8][1,5]diazecino[9,10,1-hi]indole-2-carboxylic Acid (Enantiomer 2)]	> 3.3e-05	
11.4	14.9	20.3 µM and > 33 µM	1.17e-05	1.79e-05	> 3.3e-05	2.27e-05	16.7		Cn1nc(CN2CCOCC2)c2c1COCCCn1c(C(=O)O)c(CCCOc3cccc4ccccc34)c3cccc-2c31 (single isomer, unassigned; enantiomer 2) [Example 140, 9-methyl-11-(morpholin-4-ylmethy)-1-[3-(naphthalen-1-yloxy)propyl]-5,6,8,9-tetrahydro-4H-pyrazolo[4′,3′:8,9][1,5]oxazecino[7,6,5-hi]indole-2-carboxylic Acid (Enantiomer 2)]	> 3.3e-05	
